Data published in US5340808A, “Fused pyridazinoquinazolone derivatives as neurotrophic agents” (Warner Lambert Company, priority 1992, dated 1994).
One block for each molecule: values may come before it.

Columns and labels:
[1] = target: T1, p75 receptor (truncated form, residues 1-222) (Homo sapiens, UniProt P08138); assay: Inhibition of 125I-NGF binding to the NGF p75 receptor; settings: 2 nM 125I-NGF, 2 hours at room temperature; for inhibition at 10 µM: at 10,000 nM, read-out: Inhibition of 125I-NGF Binding to p 75 (% inh); for IC50: read-out: Inhibition of 125I-NGF Binding to p 75 (IC50)
T1 construct: truncated form (residues 1-222, molecular weight=56 KDa) of the p75 receptor; biotin (chemical label, immobilised on streptavidin); purchased Chiron Corporation, Emeryville, Calif; (also commercially available from Austral Biologicals, Inc., San Diego, Calif.)
T1 sequence (P08138 29-250): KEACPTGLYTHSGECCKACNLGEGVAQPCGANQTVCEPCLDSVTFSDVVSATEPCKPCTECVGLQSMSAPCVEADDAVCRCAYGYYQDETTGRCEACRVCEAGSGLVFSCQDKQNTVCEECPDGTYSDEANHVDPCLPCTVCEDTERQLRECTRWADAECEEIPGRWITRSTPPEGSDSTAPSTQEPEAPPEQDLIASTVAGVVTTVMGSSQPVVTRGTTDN
Method: Binding assays of novel compounds to the NGF p75 receptor are performed using a truncated form (residues 1-222, molecular weight=56 KDa) of the p75 receptor, originally obtained from Chiron Corporation, Emeryville, Calif., but also commercially available from Austral Biologicals, Inc. (San Diego, Calif.), on plastic 96 well microtiter plates (Immulon II Dynatech). The wells are coated with 50 μl/well of 20 μg/ml streptavidin in a […] (DPBS). The plates are then incubated at room temperature for 6 hours. The excess streptavidin is then poured out, the wells are washed with a 0.1% solution of bovine serum albumin (BSA) in DPBS. To each well is then added […] of a DPBS solution containing the truncated p75 receptor, which has previously been reacted with biotin by standard procedures. The plates are then incubated at room temperature for 2 hours, and washed with 0.2% BSA/DPBS. To each well is added 98 μl of 2 nM ^125 I-NGF, followed by 2 μl/well of a concentration of test compound that is 50 times greater than the desired final test concentration. The plates are incubated for 2 hours at room temperature. […]

[2] = test system: sensory neuropathies; settings: cited from earlier work
[3] = test system: basal forebrain cholinergic neurons; settings: cited from earlier work
[4] = test system: Alzheimer's disease; settings: recent clinical findings in humans; cited from earlier work
[5] = test system: substantia nigra dopaminergic neurons; settings: cited from earlier work

Molecule: O=C(O)c1ccc2nc3ccc(C(=O)O)nn3c(=O)c2c1 [10-Oxo-10H-pyridazino[6,1-b]quinazoline-2,8-dicarboxylic acid]
IC50 [1]: 2190 nM

Molecule: Cc1ccc2c(=O)n3nc(C(=O)O)ccc3nc2c1 [7-Methyl-10-oxo-10H-pyridazino[6,1-b]quinazoline-2-carboxylic acid]
IC50 [1]: 4900 nM

Molecule: O=C(O)c1ccc2nc3ccc(Cl)cc3c(=O)n2n1 [8-Chloro-10-oxo-10H-pyridazino[6,1-b]quinazoline-2-carboxylic acid]
IC50 [1]: 4000 nM

Molecule: O=C(Nc1ccc2nc3ccc(C(=O)O)nn3c(=O)c2c1)c1ccccc1 [8-(Benzoylamino)-10-oxo-10H-pyridazino[6,1-b]-quinazoline-2-carboxylic acid]
IC50 [1]: 67 nM

Molecule: NGF: β-subunit, a dimer consisting of two equivalent monomers of approximately 13,000 dalton molecular weight
development of large-fiber sensory neuropathies from cisplatin, and animal model of diabetes-induced neuropathy ([2]; cisplatin, animal model of diabetes-induced neuropathy): efficacious
development of small-fiber sensory neuropathies from taxol ([2]; taxol): prevents the development of small-fiber sensory neuropathies
behavioral impairment associated with atrophied or lesioned basal forebrain cholinergic neurons ([3]; animals with atrophied or lesioned basal forebrain cholinergic neurons): reverse the associated behavioral impairment
ability of brain cholinergic neurons to survive a chemical insult ([3]; chemical insult): enhances the ability of brain cholinergic neurons to survive a chemical insult
degeneration of neurons in the medial septal nucleus after lesion of the septo-hippocampal pathway ([3]; into the cerebrospinal fluid via a miniosmotic pump): This neuronal degeneration can be prevented
usefulness in the treatment of AD [4]: treatment with NGF is useful in the treatment of AD

Molecule: O=C(O)c1ccc2c(=O)n3nc(C(=O)O)ccc3nc2c1 [10-Oxo-10H-pyridazino[6,1-b]quinazoline-2,7-dicarboxylic acid]
inhibition at 10 µM [1]: 46%

B1: BDNF: member of the neurotrophins, a family of related neurotrophic peptides (protein, UniProt P23560 19-247, looked up)
Neurotrophic factor BDNF …: APMKEANIRGQGGLAYPGVRTHGTLESVNGPKAGSRGLTSLADTFEHVIEELLDEDQKVRPNEENNKDADLYTSRVMLSSQVPLEPPLLFLLEEYKNYLDAANMSMRVRRHSDPARRGELSVCDSISEWVTAADKKTAVDMSGGTVTVLEKVPVSKGQLKQYFYETKCNPMGYTKEGCRGIDKRHWNSQCRTTQSYVRALTMDSKKRIGWRFIRIDTSCVCTLTIKRGR
neurotrophic effects on substantia nigra dopaminergic neurons [5]: exerts neurotrophic effects on substantia nigra dopaminergic neurons

The next lines start with the values.

inhibition at 10 µM [1]: 39%
Molecule: O=C(O)c1ccc2nc3ccccc3c(=O)n2n1 [10-Oxo-10H-pyridazino[6,1-b]quinazoline-2-carboxylic acid]

IC50 [1]: 1500 nM
Molecule: COc1ccc2nc3ccc(C(=O)O)nn3c(=O)c2c1 [8-Methoxy-10-oxo-10H-pyridazino[6,1-b]quinazoline-2-carboxylic acid]

IC50 [1]: 1800 nM
Molecule: Cc1ccc2nc3ccc(C(=O)O)nn3c(=O)c2c1 [8-Methyl-10-oxo-10H-pyridazino[6,1-b]quinazoline-2-carboxylic acid]

IC50 [1]: 344 to 369 nM
Molecule: O=C(O)c1ccc2nc3cc4ccccc4cc3c(=O)n2n1 [12-Oxo-12H-benzo[g]pyridazino[3,2-b]quinazoline-2-carboxylic acid]

inhibition at 10 µM [1]: 42%
Molecule: CC(=O)Nc1ccc2c(=O)n3nc(C(=O)O)ccc3nc2c1 [7 -Acetylamino-10-oxo-10H-pyridazino[6,1-b]quinazoline-2-carboxylic acid]

IC50 [1]: 238 nM
Molecule: Cc1ccc(C(=O)Nc2ccc3nc4ccc(C(=O)O)nn4c(=O)c3c2)cc1 [8-[(4-Methylbenzoyl)amino]-10-oxo-10H-pyridazino [6,1-b]quinazoline-2-carboxylic acid]
